Assay results from paper PMC5890513 (Antiviral Chemistry & Chemotherapy, 2017).

What was measured:
SFTSV = experiment: microbe, parasite or virus in culture; assay type: cell-based, severe fever with thrombocytopenia syndrome virus; conditions: for EC50: Severe fever with thrombocytopenia syndrome virus, Vero, 72 h, read-out: EC50 (50% effective concentration), anti-SFTSV activity
in vitro = conditions: monkey

SMILES | anti-SFTSV activity (intracellular SFTSV RNA level), in words (SFTSV) | EC50 (SFTSV) | CC50 (in vitro) | viability of mock-infected Vero cells (Vero cells)
CCN(CC)Cc1cc(Nc2ccnc3cc(Cl)ccc23)ccc1O [Compound 1, 4-(7-Chloroquinolin-4-ylamino)-2-diethylaminomethylphenol] | selective inhibitor of SFTSV replication | 19.1 ± 5.1 µM | > 100 µM | 
CCN(CC)Cc1cc(Nc2ccnc3cc(F)ccc23)ccc1O [Compound 2, 4-(7-Fluoroquinolin-4-ylamino)-2-diethylaminomethylphenol] |  | 36.6 ± 9.3 µM | > 100 µM | 
CCN(CC)Cc1cc(Nc2ccnc3cc(Br)ccc23)ccc1O [Compound 3, 4-(7-Bromoquinolin-4-ylamino)-2-diethylaminomethylphenol] |  | 31.1 ± 16.8 µM | > 100 µM | 
CCN(CC)Cc1cc(Nc2ccnc3cc(I)ccc23)ccc1O [Compound 4, 4-(7-Iodoquinolin-4-ylamino)-2-diethylaminomethylphenol] |  | 15.6 ± 4.9 µM | > 100 µM | 
NC(=O)c1nc(F)c[nH]c1=O [Favipiravir] | reduced the intracellular SFTSV RNA level in a dose-dependent manner | 25 ± 9.3 µM | > 100 µM | did not reduce the viability
NC(=O)c1ncn([C@@H]2O[C@H](CO)[C@@H](O)[C@H]2O)n1 [Ribavirin] | reduced the intracellular SFTSV RNA level in a dose-dependent manner | 40.1 ± 16.3 µM | > 100 µM | did not reduce the viability
